Tests used:
SW48 = experiment: ATPlite cell IC50 screening, SW48; format: cell-based; details: Homo sapiens; SW48, Colon adenocarcinoma; ATPlite luminescence
Description: (§1) In brief, the cells were cultures in relevant medium and treated with a range of 9 doses of 2-deoxyribitol, from 10 mM, 5 mM, 2.5 mM, 1.25 mM, 0.62 mM, 0.31 mM, 0.08 mM, and 0.04 mM. Cells were diluted in the corresponding ATCC recommended medium and dispensed in a 384-well plate, depending on the cell line used, at a density of 100-6400 cells per well in 45 μl medium. For each used cell line the optimal cell density was used. The margins of the plate were filled with phosphate-buffered saline. Plated cells were incubated in a humidified atmosphere of 5% CO2 at 37° C. After 24 hours, 5 μl of compound dilution was added and plates were further incubated. At the end of experiment (t=end), 24 μl of ATPlite 1Step™ (PerkinElmer) solution was added to each well, and subsequently shaken for 2 minutes. After 10 minutes of incubation in the dark, the luminescence was recorded on an Envision multimode reader (PerkinElmer). IC50 was determined in comparison with the control samples. The cell lines tested and their corresponding disease model is indicated the left-most and middle columns, respectively. IC50 values are given in μM values in the right-most column. This screening was performed of a list of cancer cells to establish IC50 values for each of the cancer cell lines. This screening provides evidence for the potential of 2DR to treat many cancer types.

RL = experiment: ATPlite cell IC50 screening, RL; format: cell-based; details: Homo sapiens, Diffuse large B-cell lymphoma, ATPlite luminescence
Description: as §1

Water solubility = format: physicochemical
Description: (§2) It can be delivered by direct application to local areas, given orally or through vasculature system. 2-deoxyribitol can also be delivered before, at the same time, or after the use of other drugs. 2-deoxyribitol can be applied as treatment for cancers before, at the same time, or after any other treatment procedure(s). In addition, the effect of 2-deoxyribitol on three tissue types of cancers indicate that it can be applied for many other epithelial cancers.

HT-1080 = experiment: ATPlite cell IC50 screening, HT-1080; format: cell-based; details: Homo sapiens; HT-1080, Fibrosarcoma; ATPlite luminescence
Description: as §1

Storage stability = format: physicochemical; details: 4 degrees Celsius, highly stable
Description: as §2

[1] = test system: breast cancer cell line MCF7; experiment: MCF7 cell culture, growth and death (FIG. 2); format: cell-based; details: 3 day treatment
Description: From left-top-to-bottom: Control, 0.4 mM Drug, 2 mM rib, and 10 mM Drug; From right-top-to-bottom: 0.4 mM rib; 2 mM Drug; 10 mM rib; and 50 mM Drug.
However, this effect was not related to the enhanced expression of glycosylation of α-DG.

COLO 205 = experiment: ATPlite cell IC50 screening, COLO 205; format: cell-based; details: Homo sapiens; COLO 205, Colon adenocarcinoma; ATPlite luminescence
Description: as §1

SJCRH30 = experiment: ATPlite cell IC50 screening, SJCRH30; format: cell-based; details: SJCRH30, Alveolar rhabdomyosarcoma; ATPlite luminescence
Description: as §1

BxPC-3 = experiment: ATPlite cell IC50 screening, BxPC-3; format: cell-based; details: Homo sapiens; BxPC-3, Pancreatic ductal adenocarcinoma; ATPlite luminescence
Description: as §1

[2] = test system: prostate cancer cell line LNCaP; experiment: LNCaP cell culture, growth and death (FIG. 5, FIG. 10); format: cell-based
Description: A dose dependent decrease in cell density was clearly detected with 2-deoxyribitol treatment, but not with ribitol treatment.
Less than 50% of cells and 10% of cells were detected with the treatment of 10 mM and 50 mM 2-deoxyribitol, respectively.

BT-549 = experiment: ATPlite cell IC50 screening, BT-549; format: cell-based; details: Homo sapiens; BT-549, Invasive ductal carcinoma; ATPlite luminescence
Description: as §1

RS4-11 = experiment: ATPlite cell IC50 screening, RS4-11; format: cell-based; details: Homo sapiens; RS4-11, Adult B acute lymphoblastic leukemia; ATPlite luminescence
Description: as §1

PA-1 = experiment: ATPlite cell IC50 screening, PA-1; format: cell-based; details: Homo sapiens; PA-1, Ovarian mixed germ cell tumor; ATPlite luminescence
Description: as §1

DU4475 = experiment: ATPlite cell IC50 screening, DU4475; format: cell-based; details: Homo sapiens, DU-4475; DU4475, Breast carcinoma; ATPlite luminescence
Description: as §1

[3] = test system: normal human breast epithelial cells MCF7-10F; experiment: Normal breast epithelial cell culture (FIG. 8); format: cell-based; details: 2-40 mM, 4 days
Description: 2-deoxyribitol was given in ascending doses of 2 mM (top middle panel), 5 mM (top right panel), 10 mM (bottom left panel), 20 mM (bottom middle panel), and 40 mM (bottom right panel). No significant differences were observed between the control and drug-treated cells at any dose.
In contrast, 2-deoxyribitol produced unnoticeable changes in cell culture of normal human myoblasts or differentiated myotubes (FIG. 7), indicating its low toxicity potential to normal cell populations. In this study, normal human myoblasts (HSKM cells) were treated with 2-deoxyribitol (Drug) for 3 days.

DU 145 = experiment: ATPlite cell IC50 screening, DU 145; format: cell-based; details: Homo sapiens; DU 145, Prostate carcinoma; ATPlite luminescence
Description: as §1

MG-63 = experiment: ATPlite cell IC50 screening, MG-63; format: cell-based; details: Homo sapiens; MG-63, Osteosarcoma; ATPlite luminescence
Description: as §1

ES-2 = experiment: ATPlite cell IC50 screening, ES-2; format: cell-based; details: Homo sapiens; ES-2, Ovarian clear cell adenocarcinoma; ATPlite luminescence
Description: as §1

[4] = test system: hepatocarcinoma HEPG2 cells; experiment: HEPG2 cell culture, growth and death (FIG. 6); format: cell-based
Description: The cells grow into large sheets (Control; top left panel), but remain tightly packed with limited cytoplasm. Cells were treated with 5 mM (top middle panel), 10 mM (top right panel), 20 mM (bottom left panel), or 40 mM (bottom right panel) 2-deoxyribitol (Drug). A dose-dependent decrease in cell density and increase in volume of cytoplasm is observed with the drug treatment.
2-deoxyribitol was also found to be effective at inhibiting the growth of and inducing cell death in the hepatocarcinoma cell HEPG2. […] HEPG2 cells have a clonal growth pattern with tightly-packed cells growing out to fill the surrounding empty space. […] Small numbers of cell death were also detected in the remaining narrow areas where the size of the cells was relatively smaller than those of surrounding cells.

VA-ES-BJ = experiment: ATPlite cell IC50 screening, VA-ES-BJ; format: cell-based; details: Epithelioid sarcoma, ATPlite luminescence
Description: as §1

RL95-2 = experiment: ATPlite cell IC50 screening, RL95-2; format: cell-based; details: Homo sapiens; RL95-2, Endometrial adenosquamous carcinoma; ATPlite luminescence
Description: as §1

SMILES: OCC[C@H](O)[C@H](O)CO [2-deoxyribitol]
- IC50 (SW48): 4.49 mM
- IC50 (RL): 3.4 mM
- water solubility (Water solubility): water soluble
- IC50 (HT-1080): 4.39 mM
- stability on storage (Storage stability): at least 6 months
- effect on cell growth, death and morphology ([1]; MCF7, 0.4-50 mM): dose-dependent inhibition in cell growth and increase in cell death
- cells survive compared to the control ([1]; MCF7, dose of 10 mM or higher): about 10%
- IC50 (COLO 205): 4.54 mM
- IC50 (SJCRH30): 4.46 mM
- IC50 (BxPC-3): 7.81 mM
- cells detected after treatment ([2]; 10 mM, 4 days): Less than 50%
- number of cancer cells / anticancer effect ([2]; 10 mM, 7 days (FIG. 10)): markedly reduces the number of cancer cells
- cells detected after treatment ([2]; 50 mM, 4 days): < 10%
- effect on cell growth, death and cell density ([2]; 2-50 mM, 4 days): dose dependent inhibition in cell growth and death
- IC50 (BT-549): 4.27 mM
- IC50 (RS4-11): 3.06 mM
- IC50 (PA-1): 3.49 mM
- IC50 (DU4475): 5.72 mM
- growth inhibition or cell death of normal breast cells [3]: did not inhibit growth or cause cell death
- IC50 (DU 145): 4.87 mM
- IC50 (MG-63): 9.27 mM
- IC50 (ES-2): 8.74 mM
- effect on number of cells and cytoplasm ([4]; HEPG2, 5-40 mM): decreased the number of cells with increasing amount of cytoplasm dose-dependently
- cell size relative to control cells ([4]; HEPG2, majority of cells, dose of 20 mM or higher): three or more times larger
- IC50 (VA-ES-BJ): 5.28 mM
- IC50 (RL95-2): 6.42 mM

Source: patent publication US12257214B2, “Compositions and methods comprising deoxy-pentitols” (The Charlotte Mecklenburg Hospital Authority, priority 2021, dated 2025)
